Measurements: ChEMBL document CHEMBL1201862, “PubChem BioAssay data set” (2004)
“And” between values parts separate entries of the source, which are not always exact repeats. Identical values can stand only once.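 Briefly, cells in 96-well plates were exposed to five compound concentrations for 48 h, and endpoints were estimated by linear interpolation. Here, GI50 denotes the concentration required for 50% inhibition of growth.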 The source made the active and inactive calls. Cut-off read from the data, not from the text of the source: active = GI50 up to about 1.1 µM and inactive = higher.

How the values were obtained:
Experiment in all cases: NCI anticancer screen, dose series, 48 h
COLO 205 = system: COLO 205
EKVX = system: EKVX
HCT-116 = system: HCT-116
IGROV-1 = system: IGROV-1
M14 = system: M14
MOLT-4 = system: MOLT-4
NCI/ADR-RES = system: NCI/ADR-RES
OVCAR-8 = system: OVCAR-8
RXF 393 = system: RXF 393
SF-268 = system: SF-268
SF-539 = system: SF-539
SK-MEL-28 = system: SK-MEL-28
SK-OV-3 = system: SK-OV-3
SN12C = system: SN12C
UACC-62 = system: UACC-62
UO-31 = system: UO-31
NCI-H522 = system: NCI-H522
RPMI-8226 = system: RPMI-8226
HL-60 = system: HL-60
HOP-92 = system: HOP-92

Measured: GI50

COC(=O)[C@@H]1C[C@H]2[C@H](c3ccccc3Br)[C@@H](OC(C)=O)[C@@H](OCc3ccccc3)ON2O1
inactive: COLO 205 > 100 µM | EKVX > 100 µM | HCT-116 > 100 µM | IGROV-1 21.9 µM | M14 > 100 µM | MOLT-4 45.3 µM | NCI/ADR-RES > 100 µM | OVCAR-8 > 100 µM | RXF 393 > 100 µM | SF-268 > 100 µM | SF-539 > 100 µM | SK-MEL-28 > 100 µM | SK-OV-3 > 100 µM | SN12C > 100 µM | UACC-62 > 100 µM | UO-31 > 100 µM

CCOC(=O)CC(=O)Nc1cccc2sc3ncccc3c(=O)c12
inactive: COLO 205 68.2 µM | EKVX 65.8 µM | HCT-116 46 µM | IGROV-1 > 10 µM | M14 87.1 µM | MOLT-4 10 µM | NCI-H522 45.4 µM | NCI/ADR-RES 36.8 µM | OVCAR-8 52.4 µM | RPMI-8226 35.6 µM | RXF 393 3.09 µM | SF-268 36.2 µM | SF-539 41.7 µM | SK-MEL-28 47.8 µM | SK-OV-3 22.4 µM | SN12C 51.8 µM | UACC-62 31.7 µM | UO-31 25.7 µM

N=C(NNS(=O)(=O)c1ccccc1)Oc1ccc(Br)cc1Br
inactive: COLO 205 > 100 µM | EKVX > 100 µM | HCT-116 > 100 µM | HL-60 92.7 µM | HOP-92 44.8 µM | IGROV-1 > 100 µM | M14 > 100 µM | MOLT-4 > 100 µM | NCI-H522 67 µM | OVCAR-8 > 100 µM | RPMI-8226 57.8 µM | RXF 393 > 100 µM | SF-268 > 100 µM | SF-539 > 100 µM | SK-MEL-28 > 100 µM | SK-OV-3 > 100 µM | SN12C > 100 µM | UACC-62 > 100 µM | UO-31 > 100 µM

COc1cc(-c2c(C(C)=O)c(-c3ccccc3)n(C3OC(COC(C)=O)C(OC(C)=O)C(OC(C)=O)C3OC(C)=O)c(=S)c2C#N)ccc1O (stereo unspecified)
inactive: COLO 205 97.1 µM | EKVX 57.4 µM | HCT-116 70.8 µM | HOP-92 36.6 µM | M14 > 100 µM | MOLT-4 58.9 µM and 60.1 µM | NCI/ADR-RES > 100 µM | RXF 393 > 100 µM and 78.5 µM | SF-268 > 100 µM | SK-MEL-28 > 100 µM | SN12C > 100 µM | UACC-62 59.2 µM | UO-31 > 100 µM and 55.1 µM

OCCN(CCO)c1ncnc2c1sc(=S)n2-c1ccccc1
inactive: COLO 205 > 100 µM | EKVX > 100 µM | HCT-116 > 100 µM | HL-60 > 100 µM | HOP-92 > 100 µM | IGROV-1 > 100 µM | M14 > 100 µM | MOLT-4 > 100 µM | NCI-H522 > 100 µM | OVCAR-8 > 100 µM | RPMI-8226 > 100 µM | RXF 393 > 100 µM | SF-268 > 100 µM | SF-539 > 100 µM | SK-MEL-28 > 100 µM | SK-OV-3 > 100 µM | SN12C > 100 µM | UACC-62 > 100 µM | UO-31 > 100 µM

COc1cc2c(cc1OC)C(Cc1ccc(Oc3cc(CC4c5cc(OC)c(OC)cc5CCN4C)ccc3O)cc1)N(C)CC2 (stereo unspecified)
inactive: COLO 205 11.3 µM | EKVX 88.5 µM | HCT-116 10.3 µM | HL-60 13.4 µM | HOP-92 24.3 µM | IGROV-1 23.1 µM | M14 15.2 µM | MOLT-4 14.2 µM | NCI-H522 12 µM | OVCAR-8 87.3 µM | RPMI-8226 16.9 µM | RXF 393 11.9 µM | SF-268 14.2 µM | SF-539 16.3 µM | SK-MEL-28 16.1 µM | SK-OV-3 35.3 µM | SN12C 25.8 µM | UACC-62 17.4 µM | UO-31 14.5 µM

Cc1cc2c(c(C(N)=O)c1C)-c1cc(Cl)cc(Cl)c1C2=O
inactive: COLO 205 > 100 µM | EKVX 58.9 µM | HCT-116 > 100 µM | HL-60 > 100 µM | HOP-92 > 100 µM | IGROV-1 > 100 µM | M14 > 100 µM | MOLT-4 > 100 µM | NCI-H522 > 100 µM | OVCAR-8 37.7 µM | RPMI-8226 > 100 µM | RXF 393 > 100 µM | SF-268 97.7 µM | SF-539 90.2 µM | SK-MEL-28 > 100 µM | SK-OV-3 57.4 µM | SN12C > 100 µM | UACC-62 > 100 µM | UO-31 > 100 µM

Cn1c(=O)c2nc(CCCCC(=O)O)[nH]c2n(C)c1=O
inactive: EKVX > 100 µM | HCT-116 > 100 µM | HOP-92 > 100 µM | IGROV-1 61.7 µM | M14 > 100 µM | MOLT-4 > 100 µM | NCI-H522 > 100 µM | NCI/ADR-RES > 100 µM | OVCAR-8 > 100 µM | RXF 393 > 100 µM | SF-268 > 100 µM | SK-MEL-28 > 100 µM | SN12C > 100 µM | UACC-62 > 100 µM | UO-31 > 100 µM

c1ccc2c(c1)Sc1ccccc1N2CCCN1c2ccccc2Sc2ccccc21
inactive: COLO 205 52.6 µM | EKVX > 100 µM | HCT-116 55.5 µM | HOP-92 > 100 µM | IGROV-1 > 100 µM | M14 50.6 µM | MOLT-4 76.4 µM | NCI-H522 > 100 µM | NCI/ADR-RES 69.8 µM | OVCAR-8 54.2 µM | RXF 393 78.5 µM | SF-268 > 100 µM | SF-539 > 100 µM | SK-MEL-28 > 100 µM | SK-OV-3 > 100 µM | SN12C 91.6 µM | UACC-62 > 100 µM | UO-31 > 100 µM

Cc1nc2nnc(C)n2c2c1C(=O)Nc1ccccc1N2
inactive: COLO 205 > 100 µM | EKVX > 100 µM | HCT-116 > 100 µM | HL-60 > 100 µM | HOP-92 > 100 µM | IGROV-1 > 100 µM | M14 > 100 µM | MOLT-4 > 100 µM | NCI-H522 > 100 µM | OVCAR-8 > 100 µM | RPMI-8226 > 100 µM | RXF 393 > 100 µM | SF-268 > 100 µM | SF-539 > 100 µM | SK-MEL-28 > 100 µM | SK-OV-3 > 100 µM | SN12C > 100 µM | UACC-62 > 100 µM | UO-31 > 100 µM

COC(=O)[C@@H]1Cc2ccc(OC)c(c2)OCCC(=O)N1
inactive: COLO 205 > 100 µM | EKVX > 100 µM | HCT-116 > 100 µM | IGROV-1 3.14 µM | M14 > 100 µM | MOLT-4 > 100 µM | NCI-H522 > 100 µM | NCI/ADR-RES > 100 µM | OVCAR-8 > 100 µM | RPMI-8226 > 100 µM | RXF 393 > 100 µM | SF-268 > 100 µM | SK-MEL-28 > 100 µM | SK-OV-3 > 100 µM | UACC-62 > 100 µM | UO-31 > 100 µM
